Some test systems named below: ACHN renal; CCRF-CEM leukemia; KM12 colon; SR leukemia; LOX IMVI melanoma; NCI-H23 lung; OVCAR-3 ovarian; OVCAR-5 ovarian; MDA-N; PC-3 prostate; SN12C renal; A549 NSCLC.
Holding throughout (test): NCI tumour cell line growth inhibition, 48 h

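These data come from cells grown in 96-well plates and exposed to compound for 48 hours at five concentrations. GI50 marks 50% less growth. The concentration for full growth arrest is given as TGI.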

`Cc1c(O)ccc2c(O)c(NC(=O)c3ccc4c(c3)CCC(C)(C)O4)c(=O)oc12`: the TGI in the test on ACHN renal, in the test with CCRF-CEM leukemia, in the test on KM12 colon, with SR leukemia, in the test with LOX IMVI melanoma and with NCI-H23 lung was greater than 100 µM each time. The TGI with OVCAR-3 ovarian, in the test on OVCAR-5 ovarian, in the test with MDA-N, with PC-3 prostate, in the test with SN12C renal and in the test on A549 NSCLC was greater than 100 µM in each case.
With `Cc1ccc(-n2cnc(C(=N)C#N)c2N)cc1`, the TGI in the test on ACHN renal, in the test on CCRF-CEM leukemia, in the test with KM12 colon, in the test with SR leukemia, in the test on LOX IMVI melanoma and in the test on NCI-H23 lung was greater than 100 µM throughout. Further, the TGI with OVCAR-3 ovarian, with OVCAR-5 ovarian, in the test on MDA-N, in the test on PC-3 prostate, in the test on SN12C renal and in the test on A549 NSCLC was greater than 100 µM each time.
In the case of `CO/N=C(\C(=O)OC(=NC1CCCCC1)NC1CCCCC1)c1csc(NC(c2ccccc2)(c2ccccc2)c2ccccc2)n1`, the TGI in the test on ACHN renal, with CCRF-CEM leukemia, in the test with KM12 colon, in the test on SR leukemia, in the test on LOX IMVI melanoma and with NCI-H23 lung was greater than 10 µM in each case. In addition, the TGI with OVCAR-3 ovarian, in the test with OVCAR-5 ovarian, in the test with MDA-N, in the test with PC-3 prostate, in the test on SN12C renal and in the test on A549 NSCLC was greater than 10 µM throughout.
Turning to `COC(=O)C1=C(C(=O)OC)N(c2ccc(OC)cc2[N+](=O)[O-])C(c2ccc(C)cc2)=CC1c1ccc(OC)cc1OC` (configuration not stated), the TGI is greater than 100 µM with ACHN renal; greater than 32.4 µM with CCRF-CEM leukemia; 25.7 µM in the test on KM12 colon; 27.7 µM with SR leukemia; 6.75 µM with LOX IMVI melanoma; greater than 100 µM with NCI-H23 lung. In addition, the TGI in the test with OVCAR-3 ovarian is greater than 95 µM; in the test with OVCAR-5 ovarian, greater than 100 µM; in the test on MDA-N, greater than 100 µM; in the test with PC-3 prostate, greater than 100 µM; in the test on SN12C renal, 26.5 µM; in the test with A549 NSCLC, 65.3 µM.
Consider `COc1cc(Nc2nc3ccccc3nc2C(=O)O)cc(OC)c1OC`, for which the TGI in the test with ACHN renal, in the test on CCRF-CEM leukemia, in the test with KM12 colon, in the test on SR leukemia, with LOX IMVI melanoma and with NCI-H23 lung was greater than 100 µM each time. The TGI with OVCAR-3 ovarian, in the test on OVCAR-5 ovarian, in the test on MDA-N, in the test on PC-3 prostate, in the test with SN12C renal and in the test on A549 NSCLC was greater than 100 µM each time.
Turning to `O=[N+]([O-])c1ccc(CN(CCCl)OCCCl)cc1`, the TGI with ACHN renal, in the test on CCRF-CEM leukemia, in the test on KM12 colon, with SR leukemia, in the test on LOX IMVI melanoma and in the test on NCI-H23 lung was greater than 100 µM throughout. Further, the TGI with OVCAR-3 ovarian, with OVCAR-5 ovarian, in the test with MDA-N, in the test with PC-3 prostate, in the test on SN12C renal and in the test with A549 NSCLC was greater than 100 µM each time.
Regarding `CC(C)(C)OC(=O)NC1CCCCC1NC(=O)C(=O)NC1CCCCC1NC(=O)OC(C)(C)C` (configuration not stated), the TGI with ACHN renal, with CCRF-CEM leukemia, in the test with KM12 colon, with SR leukemia, in the test with LOX IMVI melanoma and in the test with NCI-H23 lung was greater than 100 µM each time. For the same compound, the TGI in the test with OVCAR-3 ovarian, in the test on OVCAR-5 ovarian, in the test with MDA-N, in the test on PC-3 prostate, in the test on SN12C renal and with A549 NSCLC was greater than 100 µM in each case.
On to `COc1cc(OC)c2nc(C)c(CCCl)c(Cl)c2c1`, for which the TGI in the test with ACHN renal, in the test on CCRF-CEM leukemia, in the test on KM12 colon, in the test on SR leukemia, with LOX IMVI melanoma and in the test on NCI-H23 lung was greater than 100 µM each time. Also, the TGI in the test with OVCAR-3 ovarian, in the test with OVCAR-5 ovarian, in the test with MDA-N, in the test with PC-3 prostate, in the test with SN12C renal and with A549 NSCLC was greater than 100 µM each time.
For `CN(C)c1ccc(/C=c2/c3ccccc3n3c2c2c([n+]3C)CCCC2)cc1`, the TGI with ACHN renal was 1.99 µM; in the test with CCRF-CEM leukemia, 5.17 µM; in the test on KM12 colon, 0.539 µM; with SR leukemia, 1.06 µM; in the test on LOX IMVI melanoma it was 1.39 µM; with NCI-H23 lung it was 6.49 µM. Besides, the TGI was 1.17 µM in the test on OVCAR-3 ovarian; 5.86 µM with OVCAR-5 ovarian; 1.27 µM with MDA-N; 2.06 µM with PC-3 prostate; 1.59 µM with SN12C renal; 1.96 µM in the test with A549 NSCLC.
In the case of `COC[C@@H](N=CC(C)(C)C)C(C)C`, the TGI with ACHN renal, with CCRF-CEM leukemia, in the test on KM12 colon, with SR leukemia, in the test on LOX IMVI melanoma and with NCI-H23 lung was greater than 100 µM in each case. The TGI with OVCAR-3 ovarian, in the test on OVCAR-5 ovarian, with MDA-N, in the test on PC-3 prostate, in the test on SN12C renal and in the test on A549 NSCLC was greater than 100 µM in each case.
For `O=C1C=CC(=O)c2c1ccc1c3ccccc3n(CCCCCn3c4ccccc4c4ccc5c(c43)C(=O)C=CC5=O)c21`, the TGI was 28.6 µM in the test on ACHN renal; 6.58 µM in the test on CCRF-CEM leukemia; greater than 100 µM with KM12 colon; 6.22 µM with SR leukemia; 35 µM with LOX IMVI melanoma; 32.8 µM in the test on NCI-H23 lung. Also, the TGI was 34.4 µM in the test with OVCAR-3 ovarian; greater than 78.1 µM in the test with OVCAR-5 ovarian; 40.1 µM in the test with MDA-N; 33.9 µM in the test on PC-3 prostate; 41.5 µM in the test on SN12C renal; greater than 100 µM in the test on A549 NSCLC.
Consider `CC1=C(C)CC2C(=O)N(c3cc(C(C)(C)C)ccc3C(C)(C)C)C(=O)C2C1` (configuration not stated), for which the TGI in the test on ACHN renal was 23.2 µM; with CCRF-CEM leukemia it was greater than 100 µM; in the test on KM12 colon, greater than 100 µM; with SR leukemia it was greater than 100 µM; in the test on LOX IMVI melanoma, greater than 100 µM; with NCI-H23 lung, greater than 100 µM. Also, the TGI in the test on OVCAR-3 ovarian, with OVCAR-5 ovarian, in the test with MDA-N, in the test on PC-3 prostate, in the test on SN12C renal and in the test on A549 NSCLC was greater than 100 µM each time.
Take `C=CCc1cccc2cc(C(=O)NCc3ccccc3)c(=N)oc12`: the TGI in the test with ACHN renal, in the test with CCRF-CEM leukemia, with KM12 colon, in the test on SR leukemia, with LOX IMVI melanoma and in the test with NCI-H23 lung was greater than 100 µM throughout. The TGI with OVCAR-3 ovarian is 58.6 µM; in the test on OVCAR-5 ovarian, greater than 100 µM; in the test on MDA-N, greater than 100 µM; with PC-3 prostate, greater than 100 µM; with SN12C renal, 91 µM; in the test on A549 NSCLC, greater than 100 µM.
Regarding `Cc1ccnc2[nH]c(-c3ccc4ccccc4c3)cc(=O)c12`, the TGI with ACHN renal was found to be 13.6 µM; in the test on CCRF-CEM leukemia it was 8.43 µM; in the test on KM12 colon it was 20.6 µM; in the test with SR leukemia it was 0.919 µM; in the test on LOX IMVI melanoma, 12.2 µM; in the test with NCI-H23 lung it was 15.3 µM. For the same compound, the TGI in the test on OVCAR-3 ovarian came to 4.51 µM; with OVCAR-5 ovarian, 23.5 µM; with MDA-N, 0.448 µM; with PC-3 prostate, 6.06 µM; in the test with SN12C renal, 18.7 µM; in the test on A549 NSCLC, 16.1 µM. Besides, the GI50 in the test on OVCAR-3 ovarian was 1.29 µM; in the test with MDA-N, 0.206 µM; in the test on PC-3 prostate, 1.38 µM.
Turning to `CN1C(=O)c2ccccc2OC12C=Cc1c(ccc3ccccc13)O2` (configuration not stated), the TGI is 10.2 µM in the test on ACHN renal; greater than 29.6 µM in the test with CCRF-CEM leukemia; 8.64 µM with KM12 colon; greater than 100 µM with SR leukemia; 22.9 µM in the test on LOX IMVI melanoma; 16 µM in the test on NCI-H23 lung. Further, the TGI in the test on OVCAR-3 ovarian is 19.1 µM; in the test on OVCAR-5 ovarian, 27.4 µM; with MDA-N it was 10.4 µM; with PC-3 prostate it was 16.8 µM; with SN12C renal, greater than 57.1 µM; with A549 NSCLC, 40.1 µM.
As to `CC1=NN(c2nc(N)nc(/C(C#N)=C\c3ccc([N+](=O)[O-])s3)n2)C(C)(C)C1`, the TGI worked out at 0.719 µM in the test on ACHN renal; 0.0942 µM in the test with CCRF-CEM leukemia; 1.85 µM with KM12 colon; 0.152 µM in the test with SR leukemia; 0.3 µM with LOX IMVI melanoma; 3.32 µM in the test with NCI-H23 lung. Besides, the TGI with OVCAR-3 ovarian came to 0.404 µM; in the test on OVCAR-5 ovarian, 21.5 µM; with MDA-N, 2.6 µM; in the test with PC-3 prostate it was 0.429 µM; with SN12C renal it was 1.51 µM; in the test on A549 NSCLC it was 16.5 µM.
As for `O=C(N/N=C(\c1ccccc1)c1ccccn1)NC1CCCCC1`, the TGI was greater than 100 µM with ACHN renal; greater than 100 µM in the test with CCRF-CEM leukemia; greater than 100 µM with KM12 colon; greater than 100 µM with SR leukemia; 51.7 µM in the test with LOX IMVI melanoma; greater than 100 µM with NCI-H23 lung. For the same compound, the TGI with OVCAR-3 ovarian, in the test on OVCAR-5 ovarian, with MDA-N, with PC-3 prostate, in the test on SN12C renal and with A549 NSCLC was greater than 100 µM each time.

Source of the values: PubChem BioAssay (NCI).
